Data taken from patent US20080131406A1, “Angiotensin I Derivatives” (NATIONAL UNVERSITY OF SINGAPORE, priority 2005, published 2008).

Key:
[1] = system: neointima formation in catheter-injured carotid artery; assay: Neointima formation after balloon catheter injury of the left carotid artery in rats; format: in vivo, Sprague Dawley (SD) rats; conditions: for % of Lumen Occlusion by Neointima (in catheter-injured carotid artery): mean ± SEM, 6 rats
From the text: SD rats were subjected to left carotid artery injury by the balloon technique according to the method described by Indolfi et al (Circulation, 92:1230-1235 (1995)). In this procedure, rats were anesthetized with chloral hydrate (0.35 g/kg) and a balloon catheter (2F Fogarty, Edwards Laboratories) was introduced through the left external carotid artery into the common carotid artery. The balloon was inflated to a pressure of 2.2 kg/cm^2 by compressed carbogen gas mixture (95% O2 and 5% CO2) and passed three times (three cycles) along the common carotid artery. The catheter was removed, the left external carotid artery was ligated, and the wound was closed. Formation of neointima in the catheter-injured carotid artery occurred and slowed considerably after 14 days (Clowes and Clowes, Lab. Invest., 52:611-616 (1985)). The right common carotid artery was left intact and served as the control artery.
Following the surgery, each animal was placed in a cage. The animals had access to water and rat chow ad libitum. The animals were randomly divided into the control group and treatment group. Each group consisted of 6 animals. The treatment group was orally administered various doses of angiotensin IV (60-360 nmoles/kg/day or 46.5-279 μg/kg/day) dissolved in 0.5 ml saline for 13 days commencing on the day of surgery. Control animals were balloon catheterized animals that were administered saline instead of the angiotensin IV solution.
On the fourteenth day following balloon catheterization, animals were anesthetized as before and both the left and right common arteries of each rat were fixed by perfusion at 120 mm Hg with 100 ml of saline followed by 250 ml of 0.1 M phosphate buffer (pH 7.4) containing 4% paraformaldehyde and 1% glutaralaldehyde and processed for paraffin embedment. Sections of 10 μm thickness were prepared and stained with toluidine blue. Twenty of such sections were cut from the midportion of the artery towards the distal end and used for morphometric evaluation of neointima formation. The area of the medial smooth muscle cells, lumen, and neointima of each section was morphometrically quantitated using an image analysis system consisting of a BX40 light microscope (Olympus, Japan) fitted with a KY-F55B color video camera (JVC, Japan) and a Pentium 166 MHz/MMX microcomputer (Datamini, Singapore) installed with an Image Pro Plus 3.0 System (Media Cybernetics, USA) for Windows 95™. The extent of neointima formation was expressed as a percentage of occlusion of the lumen by the neointima.

[2] = system: experimentally-induced cardiac hypertrophic rats; assay: Cardiac hypertrophy induced by abdominal aorta coarctation in rats; format: in vivo, Sprague Dawley (SD) rats; conditions: for Hypertrophy Index (ventricle weight in mg/body weight in g): aorta-coarcted rats, mean ± SEM, 10 rats
Protocol: The experimental protocol for induction of cardiac hypertrophy in rats was carried out as described by Everett et al (Hypertension, 23:587-592 (1994)). In this procedure, each rat was anaesthetized with 7% w/v chloral hydrate (0.35 g/kg, intraperitoneally). An incision was made in the ventral abdominal wall to access the suprarenal portion of the abdominal aorta. This portion of the abdominal aorta was dissected free and a blunt 23-guage needle was placed adjacent to the aorta. A ligature was placed around the blunt needle and the aorta. The blunt needle was then removed, leaving the aorta constricted to the size of the needle. The resulting coarctation resisted the normal flow of blood from the heart to the lower portion of the body and placed an extra load on the heart. This extra load causes hypertrophy of the heart, especially the left ventricle.
Following surgery, each animal was placed in a cage. The animals had access to water and rat chow ad libitum. The animals were randomly divided into the control group and treatment group. Each group consisted of 10 animals. The treatment group was orally administered various doses of angiotensin IV (95-380 nmoles/kg/day or 74-294 μg/kg/day) dissolved in 0.5 ml saline for four days commencing on the day of surgery. Control animals with coarcted abdominal aorta were administered saline instead of the angiotensin IV solution. Sham animals were animals that underwent the same surgical operations but their aortas were not coarcted.
On the fifth day following surgery, animals were anaesthetised as before. The heart of each animal was then excised, the ventricles dissected and the weight of the ventricles was determined. The index of the ventricle weight (in mg) over the body weight of the animal (in g) was taken as the index of hypertrophy. For sham-operated animals the index was around 2.6, for aorta-coarcted animas the index was above 3.7.
Data were expressed as mean ±SEM. Significant differences were determined by one-way ANOVA and post hoc Newman Kleuf test. The accepted level of significance was p<0.05. […] The effect was dose-dependent and significant anti-cardiac hypertrophic action was brought about by an oral dose of 190 nmoles/kg/day (or 147 μg/kg/day).

CC[C@H](C)[C@H](NC(=O)[C@H](Cc1ccc(O)cc1)NC(=O)[C@@H](N)C(C)C)C(=O)N[C@@H](Cc1cnc[nH]1)C(=O)N1CCC[C@H]1C(=O)N[C@@H](Cc1ccccc1)C(=O)O [angiotensin IV]
% of Lumen Occlusion by Neointima (in catheter-injured carotid artery) ([1]; 60 nmole/kg/day oral for 13 days): 52 ± 5% | % of Lumen Occlusion by Neointima (in catheter-injured carotid artery) ([1]; 120 nmole/kg/day oral for 13 days): 48 ± 1% | % of Lumen Occlusion by Neointima (in catheter-injured carotid artery) ([1]; 240 nmole/kg/day oral for 13 days, significantly different from Control (p < 0.05)): *43 ± 2% | % of Lumen Occlusion by Neointima (in catheter-injured carotid artery) ([1]; 360 nmole/kg/day oral for 13 days, significantly different from Control (p < 0.05)): *44 ± 2% | oral dose bringing about maximum anti-neointima action ([1]; oral for 13 days, action dose-dependent, or 186 μg/kg/day): 240 nmol/kg/day | effect on the thickness of the medial muscle layer ([1]; oral, 13 days, catheter-injured carotid artery): no significant effect | Hypertrophy Index (ventricle weight in mg/body weight in g) ([2]; 95 nmole/kg/day oral for 4 days): 3.73 ± 0.04 | Hypertrophy Index (ventricle weight in mg/body weight in g) ([2]; 190 nmole/kg/day oral for 4 days, significantly different from Control (p < 0.05)): *3.23 ± 0.07 | Hypertrophy Index (ventricle weight in mg/body weight in g) ([2]; 380 nmole/kg/day oral for 4 days, significantly different from Control (p < 0.05)): *3.40 ± 0.07 | oral dose bringing about significant anti-cardiac hypertrophic action ([2]; oral, 4 days, effect dose-dependent, or 147 μg/kg/day): 190 nmol/kg/day
